Data on 1 molecule can be found in ChEMBL document CHEMBL1806354 (J Med Chem, 2011).

Usually Ki stands for the equilibrium dissociation constant of an inhibitor or competing ligand from its target. One may read the IC50 as the concentration needed to halve the response being measured.

The source made the active and inactive calls. No cut-off for these calls is given here.

The target in assay [1] is T1, 5-hydroxytryptamine receptor 1A (Rattus norvegicus) (UniProt P19327).
T1 sequence (whole entry): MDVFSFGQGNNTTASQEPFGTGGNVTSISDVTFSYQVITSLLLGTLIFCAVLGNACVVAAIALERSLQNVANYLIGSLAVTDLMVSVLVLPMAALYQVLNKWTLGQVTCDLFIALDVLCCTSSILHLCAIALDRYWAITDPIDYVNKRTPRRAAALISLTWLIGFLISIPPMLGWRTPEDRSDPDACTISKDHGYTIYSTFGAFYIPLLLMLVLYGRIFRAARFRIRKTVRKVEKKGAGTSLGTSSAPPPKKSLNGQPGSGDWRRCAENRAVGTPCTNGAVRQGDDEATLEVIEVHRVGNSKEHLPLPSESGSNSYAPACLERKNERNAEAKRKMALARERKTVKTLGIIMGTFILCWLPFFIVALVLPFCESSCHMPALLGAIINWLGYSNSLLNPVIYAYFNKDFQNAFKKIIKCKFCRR
Nature of the assay: Decrease of 5HT1A receptor-mediated excitatory postsynaptic current amplitude in Sprague-Dawley rat median prefrontal cortex at 10 uM by whole-cell voltage clamp assay in presence of 10 uM of 5HT1A receptor antagonist WAY-100635. Also on record: scale not given: the % may be the effect or the level left. It counts as functional, tissue-based.

The subject of assay [2] is Rattus norvegicus. The assay is described as follows: Agonist activity at 5HT1A receptor in lesioned striatum of rat L-DOPA-induced dyskinesia model assessed as stimulation of 8-OH-DPAT-induced [35S]GTPgammaS binding at 1.5 mg/kg administered qd for 21 days by liquid scintillation counting. It counts as functional, organism-based. The arrangement: dose 1.5 mg/kg. (In general: GTPγS is a poorly hydrolysed GTP analogue; its binding reports G protein activation.)

Assay [3] has as its target T1, 5-hydroxytryptamine receptor 1A (Rattus norvegicus). The assay is described as follows: Decrease of 5HT1A receptor-mediated excitatory postsynaptic current amplitude in Sprague-Dawley rat median prefrontal cortex at 10 uM by whole-cell voltage clamp assay. The class given is tissue-based. The arrangement: scale not given: the % may be the effect or the level left.

The target in assay [4] is T2, 5-hydroxytryptamine receptor 1A (Homo sapiens, UniProt P08908).
T2 sequence (P08908 whole entry): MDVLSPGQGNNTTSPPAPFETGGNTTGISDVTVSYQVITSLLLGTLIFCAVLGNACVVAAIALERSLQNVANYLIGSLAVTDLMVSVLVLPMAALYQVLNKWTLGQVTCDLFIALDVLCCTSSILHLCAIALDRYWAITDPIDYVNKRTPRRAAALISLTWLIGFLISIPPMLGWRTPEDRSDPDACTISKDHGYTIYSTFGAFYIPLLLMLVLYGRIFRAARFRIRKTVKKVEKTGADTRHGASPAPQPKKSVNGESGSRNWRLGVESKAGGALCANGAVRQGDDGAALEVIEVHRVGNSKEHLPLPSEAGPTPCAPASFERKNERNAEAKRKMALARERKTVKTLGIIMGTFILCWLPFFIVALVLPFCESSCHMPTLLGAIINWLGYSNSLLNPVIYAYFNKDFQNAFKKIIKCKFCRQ
Nature of the assay: Displacement of [3H]-8-OH-DPAT from 5-HT1A receptor expressed in CHO cells after 50 mins by beta liquid scintillation counter. It counts as cell-based.

Assay [5] deals with T3, Alpha-1D adrenergic receptor (Homo sapiens, UniProt P25100).
T3 sequence (P25100 whole entry): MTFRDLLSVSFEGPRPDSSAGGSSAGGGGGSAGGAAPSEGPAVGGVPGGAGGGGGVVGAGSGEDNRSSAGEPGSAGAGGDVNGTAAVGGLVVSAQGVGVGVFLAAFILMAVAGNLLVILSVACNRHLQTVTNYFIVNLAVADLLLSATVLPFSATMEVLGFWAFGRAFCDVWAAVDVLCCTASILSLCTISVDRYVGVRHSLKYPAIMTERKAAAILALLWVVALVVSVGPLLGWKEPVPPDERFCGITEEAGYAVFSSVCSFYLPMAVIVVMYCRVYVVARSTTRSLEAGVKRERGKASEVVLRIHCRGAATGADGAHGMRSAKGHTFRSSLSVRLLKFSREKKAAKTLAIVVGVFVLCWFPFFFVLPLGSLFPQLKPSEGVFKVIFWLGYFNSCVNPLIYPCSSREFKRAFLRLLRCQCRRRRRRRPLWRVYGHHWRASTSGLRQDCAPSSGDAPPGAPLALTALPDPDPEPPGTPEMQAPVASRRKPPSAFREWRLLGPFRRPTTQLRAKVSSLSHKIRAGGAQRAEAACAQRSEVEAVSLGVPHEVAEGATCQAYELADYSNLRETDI
The assay is described as follows: Antagonist activity at adrenergic Alpha-1D receptor expressed in HEK293 cells co-transfected with Galpha16 assessed as inhibition of adrenaline-induced intracellular calcium after 3 to 5 mins by Fluo-4/AM assay. It counts as functional, cell-based.

Assay [6] deals with Rattus norvegicus. Nature of the assay: Antiparkinsonian activity in 6-hydroxydopamine lesioned Sprague-Dawley rat assessed as contralateral rotations at 1.5 mg/kg, ip measured every 5 mins for 6 hrs pretreated with 5-HT1A receptor antagonist 0.1 mg/kg of WAY-100635 for 10 mins before compound challenge. The class given is functional, organism-based.
Assay [7] concerns Rattus norvegicus. The assay is described as follows: Antiparkinsonian activity in 6-hydroxydopamine lesioned Sprague-Dawley rat assessed as contralateral rotations at 0.5 to 1.5 mg/kg, ip measured every 5 mins for 6 hrs. The class given is functional, organism-based.
Assay [8] has as its system Rattus norvegicus. Nature of the assay: Antiparkinsonian activity in 6-hydroxydopamine lesioned Sprague-Dawley rat assessed as contralateral rotations at 1.5 mg/kg, ip measured every 5 mins for 6 hrs pretreated with D2 receptor antagonist 2 mg/kg of spiperone for 15 mins before compound challenge. The class given is functional, organism-based.
Assay [9] deals with T4, Alpha-1B adrenergic receptor (Homo sapiens, UniProt P35368).
T4 sequence (P35368 whole entry): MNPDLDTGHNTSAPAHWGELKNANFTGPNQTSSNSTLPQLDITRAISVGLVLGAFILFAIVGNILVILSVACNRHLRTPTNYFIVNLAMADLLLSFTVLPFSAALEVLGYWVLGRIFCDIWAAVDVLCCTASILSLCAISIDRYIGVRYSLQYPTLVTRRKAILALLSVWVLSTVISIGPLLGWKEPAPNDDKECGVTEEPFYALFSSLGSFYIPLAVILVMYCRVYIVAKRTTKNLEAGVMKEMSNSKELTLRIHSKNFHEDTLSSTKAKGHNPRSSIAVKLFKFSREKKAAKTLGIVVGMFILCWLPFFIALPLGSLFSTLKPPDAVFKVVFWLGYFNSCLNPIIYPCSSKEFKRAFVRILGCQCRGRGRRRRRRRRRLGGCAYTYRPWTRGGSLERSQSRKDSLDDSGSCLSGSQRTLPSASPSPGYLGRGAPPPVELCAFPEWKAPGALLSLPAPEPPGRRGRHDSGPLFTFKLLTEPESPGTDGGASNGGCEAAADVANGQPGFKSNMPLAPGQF
Nature of the assay: Antagonist activity at adrenergic Alpha-1B receptor expressed in CHO cells assessed as inhibition of adrenaline-induced intracellular calcium after 3 to 5 mins by Fluo-4/AM assay. It counts as functional, cell-based. (A change in cytosolic calcium serves as a functional read-out for many receptors and channels.)

As for `CCCN1CCc2cccc3c2[C@H]1Cc1cccc(OC(=O)CCCCC2CCSS2)c1-3` (some centres undefined), the Activity was found to be 99.4% in [1] and 63.8% in assay [3]. Moreover, the result in assay [2], in assay [6] and in assay [7] was Active. This molecule also gave a Ki in assay [4] of 0.066 µM. The IC50 in assay [5] and in assay [9] was greater than 10 µM in each case. In addition, the outcome in assay [8] was inactive.
